# From paper PMC9744290, “Two apicoplast dwelling glycolytic enzymes provide key substrates for metabolic pathways in the apicoplast and are critical for Toxoplasma growth” (PLOS Pathogens, 2022)
# Biological target: T1, PGK2 (Toxoplasma gondii, UniProt A0A7J6KGR7)
# T1 construct: gene TGRH88_001020; His-SUMO fusion, E. coli BL21(DE3), His-tag resin
# T1 sequence (A0A7J6KGR7 1-593): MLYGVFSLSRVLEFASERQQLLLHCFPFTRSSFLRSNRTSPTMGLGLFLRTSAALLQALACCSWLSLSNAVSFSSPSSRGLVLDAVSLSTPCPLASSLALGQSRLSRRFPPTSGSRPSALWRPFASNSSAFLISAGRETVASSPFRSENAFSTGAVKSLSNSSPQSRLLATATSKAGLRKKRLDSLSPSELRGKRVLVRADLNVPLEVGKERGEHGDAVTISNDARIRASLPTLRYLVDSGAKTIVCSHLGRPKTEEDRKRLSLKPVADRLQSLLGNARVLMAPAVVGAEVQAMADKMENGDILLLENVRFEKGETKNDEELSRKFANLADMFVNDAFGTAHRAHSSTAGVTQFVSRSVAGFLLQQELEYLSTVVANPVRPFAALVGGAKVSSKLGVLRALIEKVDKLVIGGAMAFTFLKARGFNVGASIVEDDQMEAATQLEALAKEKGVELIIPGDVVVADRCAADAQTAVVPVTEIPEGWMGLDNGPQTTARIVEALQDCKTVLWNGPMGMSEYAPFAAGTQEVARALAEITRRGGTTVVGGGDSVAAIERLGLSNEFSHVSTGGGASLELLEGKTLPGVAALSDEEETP
# Assay: NADH-coupled colorimetric PGK assay kit, OD340
# Assay type: biochemical
# Settings: reverse direction of PGK; 0-960 uM substrate, 5 ug/ml enzyme, 2 min
smiles,measurement,value
O=C(O)[C@H](O)COP(=O)(O)O [3-phosphoglycerate],"NADH-coupled colorimetric PGK assay kit, OD340",assayed with recombinant enzymes under different concentrations of 3-phosphoglycerate (3-PG)
